From US20250369954A1, “PLATFORM AND METHOD TO CO[…] FUN[…] CARD[…] OTHER CELLS ON BOTH SIDES OF A POROUS MEMBRANE” (Government of the United States of America, as represented …, priority 2024, published 2025) come the findings set out here.

The assay relates to hiPSC-CM cells. Briefly: Impedance measurement of cardiomyocyte beating on the microfluidic device. It is filed as cell-based, human. The conditions noted are these: 1 μM verapamil, after 10 minutes of treatment, hiPSC-CM on porous membrane. On the procedure: In one embodiment, human induced pluripotent stem cell-derived cardiomyocytes (hiPSC-CM) were cultured directly on the PET membrane of the microfluidic device.
Cells in this example were trapped in the region of interest within the device using dielectrophoretic cell capture, directing cells from the microfluidic channel to the electrode. In this example, the entire electrode was covered with cells in increasing density from around 1 to 3 minutes. The following parameters for dielectrophoresis were used in this example: 4-6 Vpp, 12 MHz, […] μl min-1.
In one embodiment, hiPSC-CM cells are captured on one side of the porous membrane as in Example 1. The cardiomyocytes are treated with 1 μM verapamil, a Ca^2+ channel blocker used for treating arrhythmia.

For the compound `COc1ccc(CCN(C)CCCC(C#N)(c2ccc(OC)c(OC)c2)C(C)C)cc1OC` (stereo not shown) [verapamil], the “effect on cardiomyocyte beating (change in impedance)” value is reported as “cessation of cardiomyocyte beating”.
